# Experimental data: US12377104B1, “Methods for treating a fatty liver disease” (Madrigal Pharmaceuticals, Inc., priority 2024, dated 2025)
# Tests used:
# Protein binding = type: in vitro ADME
# NASH patients = experiment: MAESTRO-NASH: efficacy by baseline body weight and BMI; type: in vivo, human; settings: for ≥30% Reduction in MRI-PDFF at Week 52, Assessment (%) / ≥120% Increase in SHBG at Week 52, Assessment (%): post hoc
# Description: In the MAESTRO-NASH study, randomization to 80 mg and 100 mg doses was equal across all body weights. Analyses were conducted to provide additional evidence of a relationship between resmetirom dose, baseline body weight and body mass index (BMI), and safety/efficacy readouts. […] The only variable that determined exposure to resmetirom in the NASH population was body weight. […] Study median body weight was 100 kg. […] et al. (2024). CAP was stable over time, both doses showing a similar durable response (FIG. 30B).
smiles,measurement,setting,value
"CC(C)c1cc(Oc2c(Cl)cc(-n3nc(C#N)c(=O)[nH]c3=O)cc2Cl)n[nH]c1=O [Resmetirom, 2-(3,5-dichloro-4-((5-isopropyl-6-oxo-1,6-dihydropyridazin-3-yl)oxy)phenyl)-3,5-dioxo-2,3,4,5-tetrahydro-1,2,4-triazine-6-carbonitrile]",protein-bound,Protein binding,greater than 99%
same,Discontinued Study Prior to Week 52: number,"NASH patients; 80 mg, 80-<90 kg",6
same,Discontinued Study Prior to Week 52: percentage (in parentheses),"NASH patients; 80 mg, 80-<90 kg",(10.3)
same,Week 52 MITT Consensus Fibrosis Improvement Responder: number,"NASH patients; 80 mg, 80-<90 kg",20
same,Week 52 MITT Consensus Fibrosis Improvement Responder: percentage (in parentheses),"NASH patients; 80 mg, 80-<90 kg",(34.5)
same,Week 52 MITT Consensus NASH Resolution Responder: number,"NASH patients; 80 mg, 80-<90 kg",17
same,Week 52 MITT Consensus NASH Resolution Responder: percentage (in parentheses),"NASH patients; 80 mg, 80-<90 kg",(29.3)
same,Week 52 Paired Biopsies Consensus Fibrosis Improvement Responder: number,"NASH patients; 80 mg, 80-<90 kg",20
same,Week 52 Paired Biopsies Consensus Fibrosis Improvement Responder: percentage (in parentheses),"NASH patients; 80 mg, 80-<90 kg",(40.8)
same,Week 52 Paired Biopsies Consensus NASH Resolution Responder: number,"NASH patients; 80 mg, 80-<90 kg",17
same,Week 52 Paired Biopsies Consensus NASH Resolution Responder: percentage (in parentheses),"NASH patients; 80 mg, 80-<90 kg",(34.7)
same,≥30% reduction in MRI-PDFF at Week 52: number of patients,"NASH patients; 80 mg, 80-<90 kg",28
same,≥30% reduction in MRI-PDFF at Week 52: percentage of patients (in parentheses),"NASH patients; 80 mg, 80-<90 kg",(63.6)
same,≥120% increase in SHBG at Week 52: number of patients,"NASH patients; 80 mg, 80-<90 kg",30
same,≥120% increase in SHBG at Week 52: percentage of patients (in parentheses),"NASH patients; 80 mg, 80-<90 kg",(56.6)
same,Discontinued Study Prior to Week 52: number,"NASH patients; 80 mg, 90-<100 kg",6
same,Discontinued Study Prior to Week 52: percentage (in parentheses),"NASH patients; 80 mg, 90-<100 kg",(10.2)
same,Week 52 MITT Consensus Fibrosis Improvement Responder: number,"NASH patients; 80 mg, 90-<100 kg",15
same,Week 52 MITT Consensus Fibrosis Improvement Responder: percentage (in parentheses),"NASH patients; 80 mg, 90-<100 kg",(25.4)
same,Week 52 MITT Consensus NASH Resolution Responder: number,"NASH patients; 80 mg, 90-<100 kg",15
same,Week 52 MITT Consensus NASH Resolution Responder: percentage (in parentheses),"NASH patients; 80 mg, 90-<100 kg",(25.4)
same,Week 52 Paired Biopsies Consensus Fibrosis Improvement Responder: number,"NASH patients; 80 mg, 90-<100 kg",15
same,Week 52 Paired Biopsies Consensus Fibrosis Improvement Responder: percentage (in parentheses),"NASH patients; 80 mg, 90-<100 kg",(30.6)
same,Week 52 Paired Biopsies Consensus NASH Resolution Responder: number,"NASH patients; 80 mg, 90-<100 kg",15
same,Week 52 Paired Biopsies Consensus NASH Resolution Responder: percentage (in parentheses),"NASH patients; 80 mg, 90-<100 kg",(30.6)
same,≥30% reduction in MRI-PDFF at Week 52: number of patients,"NASH patients; 80 mg, 90-<100 kg",28
same,≥30% reduction in MRI-PDFF at Week 52: percentage of patients (in parentheses),"NASH patients; 80 mg, 90-<100 kg",(62.2)
same,≥120% increase in SHBG at Week 52: number of patients,"NASH patients; 80 mg, 90-<100 kg",28
same,≥120% increase in SHBG at Week 52: percentage of patients (in parentheses),"NASH patients; 80 mg, 90-<100 kg",(52.8)
same,Discontinued Study Prior to Week 52: number,"NASH patients; 80 mg, 100-<110 kg",3
same,Discontinued Study Prior to Week 52: percentage (in parentheses),"NASH patients; 80 mg, 100-<110 kg",(6.5)
same,Week 52 MITT Consensus Fibrosis Improvement Responder: number,"NASH patients; 80 mg, 100-<110 kg",8
same,Week 52 MITT Consensus Fibrosis Improvement Responder: percentage (in parentheses),"NASH patients; 80 mg, 100-<110 kg",(17.4)
same,Week 52 MITT Consensus NASH Resolution Responder: number,"NASH patients; 80 mg, 100-<110 kg",13
same,Week 52 MITT Consensus NASH Resolution Responder: percentage (in parentheses),"NASH patients; 80 mg, 100-<110 kg",(28.3)
same,Week 52 Paired Biopsies Consensus Fibrosis Improvement Responder: number,"NASH patients; 80 mg, 100-<110 kg",8
same,Week 52 Paired Biopsies Consensus Fibrosis Improvement Responder: percentage (in parentheses),"NASH patients; 80 mg, 100-<110 kg",(22.2)
same,Week 52 Paired Biopsies Consensus NASH Resolution Responder: number,"NASH patients; 80 mg, 100-<110 kg",13
same,Week 52 Paired Biopsies Consensus NASH Resolution Responder: percentage (in parentheses),"NASH patients; 80 mg, 100-<110 kg",(36.1)
same,≥30% reduction in MRI-PDFF at Week 52: number of patients,"NASH patients; 80 mg, 100-<110 kg",23
same,≥30% reduction in MRI-PDFF at Week 52: percentage of patients (in parentheses),"NASH patients; 80 mg, 100-<110 kg",(67.6)
same,≥120% increase in SHBG at Week 52: number of patients,"NASH patients; 80 mg, 100-<110 kg",14
same,≥120% increase in SHBG at Week 52: percentage of patients (in parentheses),"NASH patients; 80 mg, 100-<110 kg",(34.1)
same,Discontinued Study Prior to Week 52: number,"NASH patients; 80 mg, <80 kg",6
same,Discontinued Study Prior to Week 52: percentage (in parentheses),"NASH patients; 80 mg, <80 kg",(10.0)
same,Week 52 MITT Consensus Fibrosis Improvement Responder: number,"NASH patients; 80 mg, <80 kg",17
same,Week 52 MITT Consensus Fibrosis Improvement Responder: percentage (in parentheses),"NASH patients; 80 mg, <80 kg",(28.3)
same,Week 52 MITT Consensus NASH Resolution Responder: number,"NASH patients; 80 mg, <80 kg",15
same,Week 52 MITT Consensus NASH Resolution Responder: percentage (in parentheses),"NASH patients; 80 mg, <80 kg",(25.0)
same,Week 52 Paired Biopsies Consensus Fibrosis Improvement Responder: number,"NASH patients; 80 mg, <80 kg",17
same,Week 52 Paired Biopsies Consensus Fibrosis Improvement Responder: percentage (in parentheses),"NASH patients; 80 mg, <80 kg",(34.7)
same,Week 52 Paired Biopsies Consensus NASH Resolution Responder: number,"NASH patients; 80 mg, <80 kg",15
same,Week 52 Paired Biopsies Consensus NASH Resolution Responder: percentage (in parentheses),"NASH patients; 80 mg, <80 kg",(30.6)
same,≥30% reduction in MRI-PDFF at Week 52: number of patients,"NASH patients; 80 mg, <80 kg",34
same,≥30% reduction in MRI-PDFF at Week 52: percentage of patients (in parentheses),"NASH patients; 80 mg, <80 kg",(73.9)
same,≥120% increase in SHBG at Week 52: number of patients,"NASH patients; 80 mg, <80 kg",39
same,≥120% increase in SHBG at Week 52: percentage of patients (in parentheses),"NASH patients; 80 mg, <80 kg",(72.2)
same,"≥30% Reduction in MRI-PDFF at Week 52, Assessment (%)","NASH patients; 80 mg, body weight >100 kg",56.7%
same,"≥120% Increase in SHBG at Week 52, Assessment (%)","NASH patients; 80 mg, body weight >100 kg",29.6%
same,"≥30% Reduction in MRI-PDFF at Week 52, Assessment (%)","NASH patients; 80 mg, body weight ≤100 kg",66.9%
same,"≥120% Increase in SHBG at Week 52, Assessment (%)","NASH patients; 80 mg, body weight ≤100 kg",60.9%
same,Discontinued Study Prior to Week 52: number,"NASH patients; 80 mg, ≥110 kg",19
same,Discontinued Study Prior to Week 52: percentage (in parentheses),"NASH patients; 80 mg, ≥110 kg",(19.2)
same,Week 52 MITT Consensus Fibrosis Improvement Responder: number,"NASH patients; 80 mg, ≥110 kg",17
same,Week 52 MITT Consensus Fibrosis Improvement Responder: percentage (in parentheses),"NASH patients; 80 mg, ≥110 kg",(17.2)
same,Week 52 MITT Consensus NASH Resolution Responder: number,"NASH patients; 80 mg, ≥110 kg",17
same,Week 52 MITT Consensus NASH Resolution Responder: percentage (in parentheses),"NASH patients; 80 mg, ≥110 kg",(17.2)
same,Week 52 Paired Biopsies Consensus Fibrosis Improvement Responder: number,"NASH patients; 80 mg, ≥110 kg",17
same,Week 52 Paired Biopsies Consensus Fibrosis Improvement Responder: percentage (in parentheses),"NASH patients; 80 mg, ≥110 kg",(22.7)
same,Week 52 Paired Biopsies Consensus NASH Resolution Responder: number,"NASH patients; 80 mg, ≥110 kg",17
same,Week 52 Paired Biopsies Consensus NASH Resolution Responder: percentage (in parentheses),"NASH patients; 80 mg, ≥110 kg",(22.7)
same,≥30% reduction in MRI-PDFF at Week 52: number of patients,"NASH patients; 80 mg, ≥110 kg",33
same,≥30% reduction in MRI-PDFF at Week 52: percentage of patients (in parentheses),"NASH patients; 80 mg, ≥110 kg",(51.6)
same,≥120% increase in SHBG at Week 52: number of patients,"NASH patients; 80 mg, ≥110 kg",21
same,≥120% increase in SHBG at Week 52: percentage of patients (in parentheses),"NASH patients; 80 mg, ≥110 kg",(28.0)
same,Discontinued Study Prior to Week 52: number,"NASH patients; 100 mg, 80-<90 kg",4
same,Discontinued Study Prior to Week 52: percentage (in parentheses),"NASH patients; 100 mg, 80-<90 kg",(8.2)
same,Week 52 MITT Consensus Fibrosis Improvement Responder: number,"NASH patients; 100 mg, 80-<90 kg",13
same,Week 52 MITT Consensus Fibrosis Improvement Responder: percentage (in parentheses),"NASH patients; 100 mg, 80-<90 kg",(26.5)
same,Week 52 MITT Consensus NASH Resolution Responder: number,"NASH patients; 100 mg, 80-<90 kg",16
same,Week 52 MITT Consensus NASH Resolution Responder: percentage (in parentheses),"NASH patients; 100 mg, 80-<90 kg",(32.7)
same,Week 52 Paired Biopsies Consensus Fibrosis Improvement Responder: number,"NASH patients; 100 mg, 80-<90 kg",13
same,Week 52 Paired Biopsies Consensus Fibrosis Improvement Responder: percentage (in parentheses),"NASH patients; 100 mg, 80-<90 kg",(31.7)
